Experimental data as given in paper PMC8219695 (Nature Communications, 2021).
Where “and” joins values, the source holds several entries; their conditions need not be identical. Identical values can stand only once.

What was measured:
hMOR = target: T1, hMOR (Homo sapiens, UniProt P35372); assay: cell-based; settings: read-out: Emax hMOR
T1 construct: expressed in transfected cells; plasmid a gift from Dr. Nevin Lambert

mMOR = target: T2, mMOR (Mus musculus, UniProt P42866); assay: BRET-based Nb33 recruitment assay at mMOR; format: cell-based; settings: for Nb33 BRET assay at mMOR, response: single replicates, source data Fig 7a; for Emax mMOR: Nb33 BRET; for Emax mMOR / Emax: relative to DAMGO; for Emax: read-out: Emax mMOR, Nb33 BRET
T2 construct: signal peptide (heterologous, not specified) (N); expressed in transfected cells; pcDNA3.1(+) construct made in house

C57BL/6 mice = assay: Tail-flick dose-response in C57BL/6 mice; format: in vivo, mouse; settings: for ED50: Mus musculus, 0.25 h, read-out: ED50 (95% CI) tail-flick, n = 10; for mouse tail-flick assay (%MPE): 15 minute time point, individual animals
Protocol: CD1 mice (n = 10), at peak analgesic time point. […] Dose–response curves of 22 (s.c.), in the tail-flick assay was evaluated 15 min post drug administration in WT, C57 mice (n = 8) and MOR KO mice (n = 5). Each point represents mean ± SEM.
(§1) For analgesic dose–response experiments, male CD1 mice (20–32 g), 6–8 weeks were obtained from Charles River Laboratories and male C57BL/6 mice (22–30 g), 8–15 weeks were obtained from Jackson Lab (Bar Harbor, ME) and housed 5 mice per cage in a vivarium following an IACUC-approved protocol. For male C57BL/6 mice temperature was kept constant at 22 ± 2 °C, and relative humidity was maintained at 50 ± 5%. For male CD1 mice (20–32 g) the temperature was in the range of 20–26 °C and relative humidity maintained within the range of 30–70%. Mice were given access to food and tap water ad libitum. All mice used throughout the manuscript were opioid naïve. All mice were maintained on a 12 h light/dark cycle with Purina rodent chow and water available ad libitum and housed in groups of five until testing.
Tail-flick antinociception was determined using the radiant heat tail-flick technique using an Ugo Basile model 37360 instrument as previously described[95],[96]. The intensity was set to achieve a baseline between 2 and 3 s. Baseline latencies were determined before experimental treatments for all mice. Tail-flick antinociception was assessed as an increase in baseline latency, with a maximal 15 s latency to minimize damage to the tail. Data were analyzed as percent maximal effect, % MPE, and was calculated according to the formula: % MPE = [(observed latency – baseline latency)/(maximal latency – baseline latency)] × 100. Compounds were injected s.c. and antinociception was assessed at the peak effect. Mice were tested for analgesia with cumulative subcutaneous doses of the drug until the mouse can withstand the maximal latency. Once the mouse reached the maximal latency, the mouse was no longer given higher doses. […] In vivo experiments were evaluated using GraphPad Prism 8, San Diego, CA as described above.
96-well plate (no. 60050; Perkin Elmer; Waltham, MA, USA). At time zero, the luciferase substrate coelenterazine H (5 μM) was added to each well. Ligands were added after 5 min, then BRET signal was measured 10 min later. BRET measurements were performed using a PHERAstar FS plate reader (BMG Labtech, Cary, NC, USA). The BRET signal was calculated as the ratio of the light emitted by the mVenus […]
Dose–response curves were fit using a three-parameter logistic equation in GraphPad Prism 8 (Graphpad Software, La Jolla, CA, USA).
All experiments were repeated in at least three independent trials each with triplicate determinations.
as §1, with “dose-response” for “dose–response”, “g),6-8” for “g), 6–8”, “20-26” for “20–26”, “30-70%.” for “30–70%.”
For analgesic testing in knockout animals, wild-type, male C57BL/6 mice (22–33 g), 10-12 weeks were purchased from the Jackson Lab (Bar Harbor, ME). These mice were kept at a constant temperature of 22 ± 2 °C, and relative humidity was maintained at 40-50%. Exon-1/Exon-11 MOR-1 KO mice on a C57 background were bred in the Pintar laboratory at Rutgers University. All mice were maintained on a 12- […]

[1] = sc, s.c., 15 min time point, C57BL/6 mice

T2 sequence (P42866 whole entry): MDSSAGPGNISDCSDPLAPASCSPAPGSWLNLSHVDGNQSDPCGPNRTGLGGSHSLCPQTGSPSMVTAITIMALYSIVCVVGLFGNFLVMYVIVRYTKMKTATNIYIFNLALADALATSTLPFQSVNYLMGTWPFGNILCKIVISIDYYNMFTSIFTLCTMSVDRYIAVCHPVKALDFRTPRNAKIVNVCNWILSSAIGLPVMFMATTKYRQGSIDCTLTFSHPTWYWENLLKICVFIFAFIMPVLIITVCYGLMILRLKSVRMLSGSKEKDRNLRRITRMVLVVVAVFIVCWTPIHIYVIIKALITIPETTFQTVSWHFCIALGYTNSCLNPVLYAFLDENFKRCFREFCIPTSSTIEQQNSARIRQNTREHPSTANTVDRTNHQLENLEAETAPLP
T1 sequence (P35372 whole entry): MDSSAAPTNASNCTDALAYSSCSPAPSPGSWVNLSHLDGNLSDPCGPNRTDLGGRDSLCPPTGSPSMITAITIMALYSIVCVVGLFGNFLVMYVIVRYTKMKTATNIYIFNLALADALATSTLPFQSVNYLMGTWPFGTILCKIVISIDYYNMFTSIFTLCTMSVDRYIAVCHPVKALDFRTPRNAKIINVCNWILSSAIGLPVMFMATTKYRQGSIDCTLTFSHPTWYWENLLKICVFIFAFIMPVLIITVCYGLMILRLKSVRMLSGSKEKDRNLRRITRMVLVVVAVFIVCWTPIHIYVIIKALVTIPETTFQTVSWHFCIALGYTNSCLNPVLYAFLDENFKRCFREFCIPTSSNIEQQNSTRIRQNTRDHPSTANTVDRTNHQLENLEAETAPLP

CC[C@@H]1CN2CC[C@@]3(O)C(=Nc4cccc(OC)c43)[C@@H]2C[C@@H]1/C(=C\OC)C(=O)OC [7OH, 7-Hydroxymitragynine, reference compound]
Emax (hMOR): ~22% | EC50 (mMOR): 15 nM | Nb33 BRET assay at mMOR, response (mMOR; Log[drug] (M) -5, listed as 7-OH Mitragynine): 31.8558 and 13.6622 and 18.9084 and 19.9525 and 1.3915 and 5.568 and 5.853 and 2.0473 and 9.468 | Nb33 BRET assay at mMOR, response (mMOR; Log[drug] (M) -6, listed as 7-OH Mitragynine): 11.2448 and 12.7863 and 8.673 and 7.158 and -2.301 and 5.3956 and -5.256 and 15.8192 and 11.2218 | Nb33 BRET assay at mMOR, response (mMOR; Log[drug] (M) -7, listed as 7-OH Mitragynine): 34.9577 and 9.119 and 11.9292 and 16.603 and 7.256 and -0.02541 and 7.483 and 5.463 and 3.637 | Nb33 BRET assay at mMOR, response (mMOR; Log[drug] (M) -8, listed as 7-OH Mitragynine): 18.0513 and 18.0293 and 14.3718 and -0.3281 and -6.115 and -12.1072 and 6.0021 and 5.2851 and -7.797 | Nb33 BRET assay at mMOR, response (mMOR; Log[drug] (M) -9, listed as 7-OH Mitragynine): -7.335 and -6.503 and -1.285 and -14.3312 and -4.26 and -7.41 and 7.337 and -0.23 and -1.333 | Nb33 BRET assay at mMOR, response (mMOR; Log[drug] (M) -10, listed as 7-OH Mitragynine): -7.162 and 6.7364 and 17.2382 and -2.279 and -1.22 and 15.6435 and -10.3312 and 4.394 and -8.638 | Nb33 BRET assay at mMOR, response (mMOR; Log[drug] (M) -11, listed as 7-OH Mitragynine): 8.105 and -10.4588 and 2.354 and -4.559 and 5.739 and -1.18 and -4.753 and 4.633 and 0.1195 | Emax mMOR (mMOR): ~ 20% | Emax (mMOR): ~14% | ED50 (C57BL/6 mice; [1]): 0.25 mg/kg | mouse tail-flick assay (%MPE) (C57BL/6 mice; dose 0.1, s.c., listed as 7-OH mitragynine): 5.405 %MPE and 8.511 %MPE and 8.661 %MPE and 16.5289 %MPE and 34.8214 %MPE and 6.87 %MPE and 7.627 %MPE and -5.556 %MPE and 0.7299 %MPE and 3.6036 %MPE | mouse tail-flick assay (%MPE) (C57BL/6 mice; dose 0.3, s.c., listed as 7-OH mitragynine): 36.036 %MPE and 12.0567 %MPE and 36.2205 %MPE and 44.6281 %MPE and 52.6786 %MPE and 100 %MPE (3×) and 73.7288 %MPE and 72.2628 %MPE | mouse tail-flick assay (%MPE) (C57BL/6 mice; dose 1, s.c.): 100 %MPE | analgesic efficacy (Emax) (C57BL/6 mice; s.c., 15 min time point, C57BL/6 mice, 7OH normalized to 100%): 100%

CC[C@@H]1CN2CC[C@@]3(O)C(=Nc4cc(F)cc(OC)c43)[C@@H]2C[C@@H]1/C(=C\OC)C(=O)OC [11-F-7OH (22), 11-Fluoro-7-hydroxymitragynine]
Emax (hMOR): < 10% | Nb33 BRET assay at mMOR, response (mMOR; Log[drug] (M) -5, listed as C11-F-7OH (22)): 6.583 and -1.77 and -4.813 and -2.626 and -1.32 and 4.487 and 18.3783 and 26.5383 and 5.598 and 5.585 and 0.2094 and 5.293 | Nb33 BRET assay at mMOR, response (mMOR; Log[drug] (M) -6, listed as C11-F-7OH (22)): 0.6338 and 14.8405 and 14.4384 and 1.573 and -3.3849 and 2.324 and 3.469 and 13.567 and 11.5483 and 6.799 and 5.845 and 11.4048 | Nb33 BRET assay at mMOR, response (mMOR; Log[drug] (M) -7, listed as C11-F-7OH (22)): 2.525 and -4.237 and 5.069 and -13.128 and 0.1228 and -1.54 and 7.378 and 4.077 and 0.2648 and 1.54 and -4.687 and 9.074 | Nb33 BRET assay at mMOR, response (mMOR; Log[drug] (M) -8, listed as C11-F-7OH (22)): 0.2904 and 1.436 and 1.352 and 1.678 and 1.793 and -7.9215 and -6.277 and -6.486 and -0.06826 and 14.2168 and -0.06924 and 8.399 | Nb33 BRET assay at mMOR, response (mMOR; Log[drug] (M) -9, listed as C11-F-7OH (22)): -2.727 and 5.58 and 0.2255 and 4.116 and 4.119 and -5.256 and -3.689 and -9.68 and 0.5281 and 3.825 and 2.847 and -6.097 | Nb33 BRET assay at mMOR, response (mMOR; Log[drug] (M) -10, listed as C11-F-7OH (22)): 3.545 and 0.5186 and 8.52 and 1.379 and 2.542 and 3.339 and 3.8632 and -1.052 and 9.1269 and 14.9582 and 6.739 and 3.3642 | Nb33 BRET assay at mMOR, response (mMOR; Log[drug] (M) -11, listed as C11-F-7OH (22)): 21.3407 and -2.769 and 15.6698 and -2.476 and 2.836 and -0.3605 and -4.304 and -16.5097 and 20.8133 and -2.923 and -1.5757 and 4.499 | Emax mMOR (mMOR): near the detection limit of the assay | Emax (mMOR): < 10% | ED50 (C57BL/6 mice; [1]): 0.18 mg/kg | mouse tail-flick assay (%MPE) (C57BL/6 mice; dose 0.1, s.c.): 1.681 %MPE and 10.3175 %MPE and -0.885 %MPE and 20.8955 %MPE and 3.731 %MPE and 1.653 %MPE and 0.813 %MPE and 15.7895 %MPE and 6.383 %MPE and 0 %MPE | mouse tail-flick assay (%MPE) (C57BL/6 mice; dose 0.3, s.c.): 0.8403 %MPE and 3.1746 %MPE and -13.2743 %MPE and 18.6567 %MPE and 7.463 %MPE and 12.3967 %MPE and 9.7561 %MPE and 0 %MPE and 87.9433 %MPE and 12.2137 %MPE | mouse tail-flick assay (%MPE) (C57BL/6 mice; dose 1, s.c.): 68.0672 %MPE and 18.254 %MPE and 1.77 %MPE and 24.6269 %MPE and 3.731 %MPE and 5.785 %MPE and 8.943 %MPE and 18.0451 %MPE and 87.234 %MPE and 3.053 %MPE | mouse tail-flick assay (%MPE) (C57BL/6 mice; dose 3, s.c.): 18.4874 %MPE and 30.1587 %MPE and 45.1327 %MPE and 31.3433 %MPE and 5.97 %MPE and 7.438 %MPE and 17.8862 %MPE and 23.3083 %MPE and 30.4964 %MPE and 6.87 %MPE | mouse tail-flick assay (%MPE) (C57BL/6 mice; dose 10, s.c.): 6.723 %MPE and 21.4286 %MPE and -9.735 %MPE and 22.3881 %MPE and 14.9254 %MPE and 0 %MPE and 17.0732 %MPE and 28.5714 %MPE and 55.3192 %MPE and 12.9771 %MPE | analgesic efficacy (Emax) (C57BL/6 mice; mouse, in vivo, sc): 21%
